From publication PMC5361215 (Scientific Reports, 2017) come the findings set out here.

The star is where a group is joined. X1 = CC(C)CCC[C@@H](C)[C@H]1CC[C@H]2[C@@H]3CC=C4C[C@@H](OC(=O)CCOCCOCCOCCOCCOCCOCCOCCOCCOCCOCCOCCOCCOCCOCCOCCOCCOCCOCCOCCOCCOCCOCCOCCOCCNC(=O)C*)CC[C@]4(C)[C@H]3CC[C@]12C; X2 = CC(C)CCC[C@@H](C)[C@H]1CC[C@H]2[C@@H]3CC=C4C[C@@H](OC(=O)CCOCCOCCOCCOCCNC(=O)C*)CC[C@]4(C)[C@H]3CC[C@]12C; X3 = CC(C)CCC[C@@H](C)[C@H]1CC[C@H]2[C@@H]3CC=C4C[C@@H](OC(=O)C*)CC[C@]4(C)[C@H]3CC[C@]12C

Data set [1] has as its system HPIV3. Conditions: 24 h.
The next data set deals with Vero cells. Conditions: for Cytotoxicity in monolayer culture CC50: 24 h.
Data set [2] relates to HPIV3. The format is cell-based.
A further data set relates to NiV G/F mediated fusion. The format is cell-based.
Data set [3] deals with uncleaved HPIV3 F (K108G) (Human parainfluenza 3 virus, UniProt P06828, K108G). Type of data set: cell-based.
Data set [4] is classed as physicochemical. The note with it: pH 7.4.
The format of data set [5] is binding. The note with it: read-out: Kd, dissociation constant for POPC monolayer.
The target of another data set is RBCs. Type of data set: binding, human. Conditions: pH 7.4; read-out: Apparent Kd towards RBCs.
Data set [6] concerns HPIV3. The format is in vivo, cotton rats. Conditions: n = 4.
The subject of another data set is NiV. The arrangement: species or system Syrian golden hamsters (Mesocricetus auratus). The note with it: hamster, in vivo, ip, 2 mg/kg.
For data set [7] the following is noted: hamster, in vivo, ip, 2 mg/kg.
The nature of a further data set: in vivo. Conditions: female, Syrian golden, hamster, ip, 2 mg/kg.

By IC50 is commonly meant the concentration that gives 50% inhibition. Read a low IC50 as greater potency in that assay. As usually defined, the IC90 is the point of the concentration-response curve where the effect stands at 90%. As a reminder, the Cmax is the maximum level reached in the sampled fluid or tissue.

Chain of uncleaved HPIV3 F (K108G) (P06828 19-539 K108G): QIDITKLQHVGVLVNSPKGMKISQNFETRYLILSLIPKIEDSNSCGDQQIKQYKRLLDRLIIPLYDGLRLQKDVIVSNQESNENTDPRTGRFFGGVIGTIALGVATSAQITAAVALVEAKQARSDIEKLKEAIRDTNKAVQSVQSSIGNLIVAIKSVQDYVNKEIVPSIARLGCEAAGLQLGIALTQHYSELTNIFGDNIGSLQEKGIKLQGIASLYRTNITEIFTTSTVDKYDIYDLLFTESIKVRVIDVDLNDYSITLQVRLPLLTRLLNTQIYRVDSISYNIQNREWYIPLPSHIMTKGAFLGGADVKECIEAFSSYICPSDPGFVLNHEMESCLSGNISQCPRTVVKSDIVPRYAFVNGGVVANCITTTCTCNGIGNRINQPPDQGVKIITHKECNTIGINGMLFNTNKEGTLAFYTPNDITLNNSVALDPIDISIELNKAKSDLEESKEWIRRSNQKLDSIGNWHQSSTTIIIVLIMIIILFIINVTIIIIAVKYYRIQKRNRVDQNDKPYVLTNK

On to `CC[C@H](C)[C@H](NC(=O)[C@H](C)NC(=O)[C@H](CC(N)=O)NC(=O)CNC(=O)[C@H](CC(C)C)NC(=O)[C@H](CC(N)=O)NC(=O)[C@@H](NC(=O)CNC(=O)[C@@H](NC(=O)[C@H](CC(=O)O)NC(=O)[C@H](CC(C)C)NC(=O)[C@H](CCCNC(=N)N)NC(=O)[C@H](CCC(=O)O)NC(=O)[C@H](CC(C)C)NC(=O)[C@H](CO)NC(=O)[C@@H](NC(=O)[C@@H]1CCCN1C(=O)[C@@H]1CCCN1C(C)=O)[C@@H](C)CC)C(C)C)[C@@H](C)O)C(=O)N[C@@H](C)C(=O)N[C@@H](CCCCN)C(=O)N[C@@H](CC(C)C)C(=O)N[C@@H](CCC(=O)O)C(=O)N[C@@H](CC(=O)O)C(=O)N[C@@H](C)C(=O)N[C@@H](CCCCN)C(=O)N[C@@H](CCC(=O)O)C(=O)N[C@@H](CC(C)C)C(=O)N[C@@H](CC(C)C)C(=O)N[C@@H](CCC(=O)O)C(=O)N[C@@H](CO)C(=O)N[C@@H](CO)C(=O)N[C@@H](CC(=O)O)C(=O)N[C@@H](CCC(N)=O)C(=O)N[C@H](C(=O)N[C@@H](CC(C)C)C(=O)N[C@@H](CCCNC(=N)N)C(=O)NCC(=O)N[C@@H](CO)C(=O)NCC(=O)N[C@@H](CO)C(=O)NCC(=O)N[C@@H](CSCC(=O)NCCOCCOCCOCCOCCOCCOCCOCCOCCOCCOCCOCCOCCOCCOCCOCCOCCOCCOCCOCCOCCOCCOCCOCCOCCC(=O)O[C@H]1CC[C@@]2(C)C(=CC[C@H]3[C@@H]4CC[C@H]([C@H](C)CCCC(C)C)[C@@]4(C)CC[C@@H]32)C1)C(N)=O)[C@@H](C)CC` [HRCMV PEG 24 Chol, reference compound], for which, in the data set on HPIV3 [1], the half-inhibitory concentration (IC50) is > 2000 nM and the IC90 was > 2000 nM. The “Cytotoxicity in monolayer culture CC50” value in the data set with Vero cells is reported as 2,000 nM.

Turning to “Ac-C(X2)GSGSGVALDPIDISIVLNKAKSDLEESKEWIRRSNGKLDSI-NH2 [Chol-PEG4-VG]”, in the data set on HPIV3 [2], the “Inhibition of HPIV3 infection in HAE at 1 μM” value (from here on “Inhibition … at 1 μM”) is on record as “only partial inhibition” and the “Inhibition of HPIV3 infection in HAE at 10 μM” value was “no virus was produced at any time after infection”. In the data set with HPIV3 [1], this compound showed an IC90 of 0.1 ± 0.0001 nM. For the same compound, the “Cytotoxicity in monolayer culture CC50” value with Vero cells was >10,000 nM.

Turning to “Ac-C(X3)GSGSGVALDPIDISIVLNKAKSDLEESKEWIRRSNGKLDSI-NH2 [Chol-VG]”, the “IC50 against NiV fusion” value in the data set with NiV G/F mediated fusion was “too little effect to determine an IC50”. For the same compound, in [3], the “RBCs free (released)” value was 80% and the “RBCs reversibly bound (HN-receptor engagement only)” value was determined as 20%. In the data set on HPIV3 [1], this compound displayed an IC50 of 0.06 ± 0.035 nM and an IC90 of 1.7 ± 0.42 nM. Besides, the “Cytotoxicity in monolayer culture CC50” value in the data set on Vero cells was 9,000 nM.

On to “Ac-VALDPIDISIVLNKAKSDLEESKEWIRRSNGKLDSIGSGSGC(X1)-NH2 [VG-PEG24-Chol]”, for which the “RBCs irreversibly bound (peptide bridging)” value in [3] is on record as “looks similar to VG-Chol”. In data set [4], the “Blue-shift of ANS emission on titration with peptide” value (“Blue-shift of ANS emission” for short) is on record as 58 nm. In [5], the Kd is 77.6 ± 21.7 nM. On RBCs, the Kd worked out at 330 nM. Besides, in the data set with HPIV3 [2], the “Inhibition … at 1 μM” value is “complete inhibition of infection” and the “Inhibition of HPIV3 infection in HAE at 10 μM” value is reported as “no virus was produced at any time after infection”. Also, the “Viral load in cotton rat lungs” value in the data set with HPIV3 [6] is “significantly decreased the viral load”. Besides, the “Survival of hamsters given lethal NiV” value with NiV is “significantly improved the survival”. Further, the “Protease degradation, temperature not given” value in the data set on trypsin was “increased degradation significantly”. Moreover, in the data set on HPIV3 [1], 0.007 ± 0.007 nM corresponded to half-maximal inhibition (IC50) and the IC90 was 0.1 ± 0.0003 nM. In the data set on Vero cells, the “Concentration at which toxicity on cells appears” value is recorded as 1000 nM and the “Cytotoxicity in monolayer culture CC50” value is given as 1,300 nM. In addition, in [7], the “Peptide in brain (immuno-histofluorescence)” value was “present in brain parenchyma” and the Peptide in urine result is “No peptide was detected in the urine”. Besides, the highest level in “in vivo” (Cmax) was 120 nM.

In the case of “Ac-VALDPIDISIVLNKAKSDLEESKEWIRRSNGKLDSIGSGSGC(X2)-NH2 [VG-PEG4-Chol]”, the “RBCs irreversibly bound (peptide bridging)” value in [3] is given as “more than 50%”. In data set [4], the “Blue-shift of ANS emission” value came to 63 nm. In addition, in data set [5], the Kd was determined as 67.9 ± 14.2 nM. Besides, at RBCs, the Kd turned out to be 440 nM. Also, in the data set on HPIV3 [2], the “Decrease of HPIV3 viral titer in HAE at day 2 after infection” value was “approximately two logs”, the “Decrease of HPIV3 viral titer in HAE at day 5” value was “approximately one log” and the “Inhibition … at 1 μM” value is “only partial inhibition”. For the same compound, in the data set with HPIV3 [1], the concentration for half-maximal inhibition (IC50) was found to be 0.03 ± 0.04 nM and the concentration for an effect of 90% (IC90) was 0.7 ± 0.007 nM. For the same compound, in the data set on Vero cells, the “Cytotoxicity in monolayer culture CC50” value is 4,500 nM.

Consider “Ac-VALDPIDISIVLNKAKSDLEESKEWIRRSNGKLDSIGSGSGC(X3)-NH2 [VG-Chol]”, for which, in data set [4], the “Blue-shift of ANS emission” value amounted to 67 nm. In addition, the Kd in data set [5] came out at 62.3 ± 20.3 nM. Moreover, on RBCs, the Kd stood at 540 nM. In the data set on HPIV3 [1], this compound showed a half-maximal inhibitory concentration (IC50) of 0.015 nM and an IC90 of 0.7 ± 0.26 nM. The “Cytotoxicity in monolayer culture CC50” value with Vero cells is 10,000 nM.
